In data set [1] the test system is U87 glioma cells. The data set is described as follows: Glioma cell proliferation, manual cell counts with trypan blue. The data set is classed as cell-based, human. How it is done:
C(5)-amiloride glycine conjugate (C5am-Gly) inhibits NHE1 in U87 glioma cells and is antiproliferative. […] The inhibitory activity of C5am-Gly against NCX was tested and a systematic log dose screen of C5am-Gly against a panel of glioma cells and primary astrocytes was performed.
Manual cell counts with dye exclusion assays. Identical concentrations of glioma cells can be plated on 60 mm dishes and grown until 50% confluent. Following drug treatments, media containing floating cells can be collected in suspension. Adherent cells can be rinsed in calcium- and magnesium-free phosphate-buffered saline (PBS-CMF) and removed by incubation with 0.25% v/v trypsin for 5 minutes (37° C.). Cell suspensions can be combined with the floating fraction and centrifuged at 350×g for 5 minutes. The resulting pellet (one per dish) can be resuspended in equal volumes of PBS-CMF with 0.4% trypan blue and/or 500 nM Sytox Green. 10 μL aliquots of the suspension can be plated on a hemocytometer, and cells can be counted 5 minutes after staining. Simultaneous staining of cells with trypan (TB) and Sytox Green (SG) can be visualized by switching between visible light and fluorescein green.

Data set [2] in a line: Incubation in buffer solutions without enzymes, LC-MS. It counts as in vitro ADME. How it is done: (§1) Compound 3b is a C5am-Gly-peptide conjugate containing two D-amino acids, and compound 3c is a C5am-Gly-peptide conjugate coupled to a peptide to generate an analog of opioid peptides that cross the blood brain barrier (BBB). The resultant conjugates (compounds 3a-c) were tested for selective cleavage by the brain peptidase enkephalinase (neutral endopeptidase 24.11; Calbiochem) via incubation for 24 h in the presence or absence of the enzyme, and aliquots from the reaction solutions were then analyzed by LC-MS to identify the C5am-Gly conjugate (compound 3a), starting material, and enzymatic cleavage products (see, Scheme 3). As negative control experiments, the conjugates were analyzed following treatment with (1) bovine pancreatic trypsin (Calbiochem) or (2) the buffer solutions without enzymes.

Data set [3] concerns enkephalinase (endopeptidase 24.11). In words: Enzyme digestion with enkephalinase, LC-MS/ESI. It counts as in vitro ADME, porcine. To be noted: for Conclusion (Peptidase: Enkephalinase): 10 μM conjugate, 10 units enzyme, 25° C., pH 7.4, 24 h; for Cleavage by enkephalinase (release of compound 3a): 24 h incubation, LC-MS. On the procedure:
as §1
(§2) Enzyme digestion. Endopeptidase 24.11 (neutral, porcine kidney) and trypsin (bovine pancreas) were purchased from CalBiochem (San Diego, Calif.) and used as received. Enzymatic cleavage experiments using endopeptidase 24.11 were conducted at 25° C. in a pH 7.4 Tris buffer (150 mM NaCl, 50 mM Tris, 0.1% Triton X-100) as recommended by the manufacturer (see also, Barnes et al., J. Neurochem., 64:1826-1832 (1995), Gafford et al., Biochemistry, 22:3265-3271 (1983)). Similarly, trypsin cleavage experiments were conducted at 25° C. in pH 7.4 Dulbecco's phosphate buffered saline (Gibco; Grand Island, N.Y.). The digestion reactions included 10 μM of the amiloride-peptide conjugate and 10 units of enzyme in 250 μL of buffer. Direct aliquots were analyzed by LC-MS/ESI following a 24 hour incubation period.
(§3) Enzyme Digestion Study. Compounds 3a-d were each incubated at 25° C. with 10 units of enkephalinase (endopeptidase 24.11) to determine their susceptibility towards enzymatic cleavage. Reaction aliquots were taken following a 24 hour incubation period and analyzed directly by LC-MS/ESI (Thermo Finnigan LCQ) for the presence of the starting material and the targeted cleavage product, compound 3a (C5am-Gly). […] Since there are no basic amino acid residues in compounds 3a-d, trypsin was employed as a negative control to ensure that any observed cleavage products could be ascribed only to endopeptidase-specific interactions (Jackson, Protein Science, 8:603-613 (1999)).

The subject of a further data set is U87 cells. The data set is described as follows: Intracellular translocation into U87 cells by fluorescence microscopy. The following applies: 50 μM; 90 and 180 min; 380 nm excitation, 510 nm emission. From the text:
Fluorescence Microscopy. […] Excitation light was provided by a xenon arc lamp coupled to the Polychrome IV scanning monochromator (Till Photonics; Grafelfing, Germany) that alternately excites with different wavelengths. Excitation light was delivered by fiber optics to cells through the epifluorescence port of a Nikon E600 microscope coupled to a Nikon Fluor 60× water immersion lens. The detector was an Orca II-ER CCD digital camera (Hamamatsu USA; Bridgewater, N.J.), which is controlled by C-Imaging Simple PCI software (Compix; Cranberry Township, Pa.).
Intracellular emission intensities were collected in regions of interest (ROI) from an average of 4-8 cells/field using Simple PCI imaging software. […] Images were captured as TIFF files (C-imaging Simple PCI software), and light and fluorescent images of the same field were imported in Photoshop 6.0 and vector graphics added using Illustrator 9.0.1 (Adobe; San Jose, Calif.).

In the next data set the target is NHE1 (Homo sapiens, UniProt P19634). In words: NHE1 inhibition: sodium-dependent pHi recovery in BCECF-loaded U87 glial cells after ammonium chloride pre-pulse. It counts as cell-based. Details: Sodium-dependent proton extrusion in U87 glial cells and in primary astrocytes is mediated by the type 1 sodium proton exchanger (NHE1); endogenous in cells; host or cells: U87 human glioma cells. On the procedure:
Intracellular pH Measurements. U87 glial cells were grown on glass coverslips and incubated for 30 minutes at 37° C. with the pH-sensitive dye, 2′,7′-bis(2-carboxyethyl)-5(6)-carboxyfluorescein-AM (BCECF-AM; Molecular Probes, OR). Cells were rinsed with HEPES Ringer buffer twice and maintained at 37° C. for an additional 15 minutes to permit intracellular hydrolysis of the AM ester; trapping BCECF within the cells. Cells on coverslips were placed in a Hitachi F2000 fluorescent spectrophotometer and excited at 440 and 507 nm with fluorescent emissions recorded at 535 nm (Hegde et al., J. Pharmacol. Exp. Ther., 310:67-74 (2004)).
NHE inhibition by compounds 3a and 3c was evaluated using intracellular pH (pHi) measurements in the U87 human glial cell line (Hegde et al., supra). Cells loaded with BCECF were then acidified using the ammonium chloride pre-pulse method (Roos et al., Physiol Rev, 61:296-434 (1981)). The subsequent sodium-dependent recovery of pHi by these cells in the absence of bicarbonate was monitored using a spectrofluorometer. Sodium-dependent proton extrusion in U87 glial cells and in primary astrocytes is mediated by the type 1 sodium proton exchanger (NHE1) (McLean et al., supra; Hegde et al., supra) and was monitored in the presence or absence of compound 3a or 3c.
IC50 drug determinations for NHE1. This method utilizes spectrofluorometric measurements of [H^+]i as described above. The ammonium chloride prepulse method can be used to acidify cells in the presence of HR that is sodium-substituted with NMDG. Perfusion of the acidified cells with HR that contains sodium causes activation of NHE1 that is inhibited in a concentration-dependent fashion as described in McLean et al., supra.

For a further data set, the target named is T1, trypsin (Bos taurus, UniProt P00760).
T1 construct: purchased CalBiochem (San Diego, Calif.); host or cells: bovine pancreas
T1 sequence (P00760 24-246): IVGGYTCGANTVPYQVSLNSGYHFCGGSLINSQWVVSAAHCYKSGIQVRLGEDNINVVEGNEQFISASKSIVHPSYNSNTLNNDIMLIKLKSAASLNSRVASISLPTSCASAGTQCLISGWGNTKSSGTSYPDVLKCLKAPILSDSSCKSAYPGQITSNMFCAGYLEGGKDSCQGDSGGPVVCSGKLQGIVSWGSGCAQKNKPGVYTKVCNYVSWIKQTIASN
The data set is described as follows: Enzyme digestion with trypsin (negative control), LC-MS/ESI. It counts as in vitro ADME, bovine. To be noted: for Conclusion (Peptidase: Trypsin): 10 μM conjugate, 10 units enzyme, 25° C., pH 7.4, 24 h; for Cleavage by trypsin (release of compound 3a): 24 h incubation, LC-MS. On the procedure:
as §1, §2, §3

Data set [4] concerns U87 glioma cells. The data set is described as follows: Glioma cell death, manual cell counts with trypan blue exclusion.
Data set [5] has as its system [Ca^2+]i in U87 glioma cells. In words: [Ca2+]i in U87 glioma cells loaded with fura-2AM, quantitative fluorescent microscopy. The data set is classed as cell-based, human. How it is done: Therefore, the levels of [Ca^2+]i in U87 glioma cells loaded with fura-2AM were measured using quantitative fluorescent microscopy. […] The ATP-dependent calcium regulatory mechanisms within U87 glioma cells containing fura-2 were then examined. […] ATP synthase operates in reverse when milimolar concentrations of calcium are stored by the mitochondrion (Nicholls, Bioenergetics, 3, Academic Press, London, 3rd edition (2002)).
Quantitative fluorescent microscopy of [Ca^2+]i levels. [Ca^2+]i levels can be measured in cells loaded with either fura-2A or fura-2FFAM under the conditions described above.

A further data set deals with NHE1 and NCX. The following applies: NHE1 and NCX inhibitors from the literature; cited from earlier work.
Data set [6] concerns glioma cells and primary astrocytes. In words: Cell entry by confocal microscopy. The data set is classed as in vitro ADME.
Data set [7] concerns glioma in poorly vascularized tumor regions. In words: Single intracerebral infusion of DCB in tumor-bearing animals. The following applies: 10 pmol over 2 h. It counts as in vivo. On the procedure: Unfortunately, DCB was associated with 4 of 5 animals dying during the following 12 to 24 h.
Data set [8] concerns T2, Compound 3d (C5am conjugate of the peptide Gly-Gly-Gly-Phe-Leu).
T2 sequence: GGGFL

Data set [9] relates to T3, Compound 3b (C5am-Gly-D-Ala-Gly-Phe-D-Leu-OH).
T3 sequence: GXGFX

Data set [10] deals with T4, Compound 3c (C5am-Gly-Gly-Gly-Gly-Phe-Leu-OH).
T4 sequence: GGGGFL

“Also recorded” adds a separate entry of the source. Starred links: 1 amine or outer side, 2 acyl side, 3 side chain; linkers in the order of their positions; H or OH if unused. Non-standard residues stand in square brackets, D forms with d. Residues, ends and D or L forms follow the SMILES beside them. X1 = N=C(N)NC(=O)c1nc(Cl)c(N(CC(=O)[*:2])[*:1])nc1N

Chain of NHE1 (P19634 whole entry): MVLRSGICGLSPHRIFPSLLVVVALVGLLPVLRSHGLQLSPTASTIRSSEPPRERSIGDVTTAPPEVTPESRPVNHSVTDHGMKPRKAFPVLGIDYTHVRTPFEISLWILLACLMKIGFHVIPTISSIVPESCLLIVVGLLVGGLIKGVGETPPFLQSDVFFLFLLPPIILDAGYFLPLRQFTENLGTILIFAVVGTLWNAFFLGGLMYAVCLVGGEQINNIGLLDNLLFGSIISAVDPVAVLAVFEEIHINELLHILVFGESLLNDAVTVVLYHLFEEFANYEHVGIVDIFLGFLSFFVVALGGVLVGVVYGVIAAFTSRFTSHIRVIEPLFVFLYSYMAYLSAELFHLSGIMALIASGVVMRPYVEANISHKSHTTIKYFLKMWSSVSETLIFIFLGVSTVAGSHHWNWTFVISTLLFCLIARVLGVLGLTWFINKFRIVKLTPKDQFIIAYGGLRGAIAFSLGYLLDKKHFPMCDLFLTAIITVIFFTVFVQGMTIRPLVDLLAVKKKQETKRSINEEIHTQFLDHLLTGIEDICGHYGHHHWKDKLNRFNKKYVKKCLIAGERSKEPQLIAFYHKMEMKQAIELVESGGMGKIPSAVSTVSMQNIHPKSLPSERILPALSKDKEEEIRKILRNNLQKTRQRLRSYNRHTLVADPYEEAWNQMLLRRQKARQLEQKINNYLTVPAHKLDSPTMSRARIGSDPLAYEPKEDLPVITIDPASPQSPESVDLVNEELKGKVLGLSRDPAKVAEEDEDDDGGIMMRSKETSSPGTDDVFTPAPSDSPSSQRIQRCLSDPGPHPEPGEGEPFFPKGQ

As for `N=C(N)NC(=O)c1nc(Cl)c(NCC(=O)O)nc1N` [Compound 3a], in the data set on U87 glioma cells [1] (glioma cells), the “Glioma Effect: antiproliferative concentration” value is recorded as “≦100 μM antiproliferative”. For the same molecule, in the data set on U87 glioma cells [1] (≦100 μM, 48 h), the “Proliferation of U87 glioma cells, % of stage-matched controls” value is recorded as 22%. Besides, in data set [2], the “Stability in control (buffer) digestion” value was “unaffected”. Also, in [3], the “Conclusion (Peptidase: Enkephalinase)” value is “Enkephalinase resistant” and the “Cleavage by enkephalinase (release of compound 3a)” value is on record as “unaffected; also recorded: stable”. In the data set with U87 cells, the “Intracellular accumulation in U87 cells” value is “no intracellular fluorescence above mean intracellular background; also recorded: failed to detect; also recorded: did not accumulate”. Further, on NHE1 (U87 glial cells, sodium-dependent pHi recovery without bicarbonate, read-out: IC50 (μM) +/− SD (NHE inhibition)), the IC50 worked out at 13 ± 7 µM. For the same molecule, on trypsin, the “Conclusion (Peptidase: Trypsin)” value was “Trypsin resistant” and the “Cleavage by trypsin (release of compound 3a)” value was “unaffected; also recorded: stable”.
In the case of `CC(C)C[C@@H](NC(=O)[C@H](Cc1ccccc1)NC(=O)CNC(=O)[C@@H](C)NC(=O)CNc1nc(N)c(C(=O)NC(=N)N)nc1Cl)C(=O)O` [Compound 3b, C5am-Gly-D-Ala-Gly-Phe-D-Leu-OH] (H-[X1][dA]GF[dL]-OH), the “Stability in control (buffer) digestion” value in data set [2] is on record as “not cleaved”. Besides, in data set [3], the “Conclusion (Peptidase: Enkephalinase)” value is given as “Enkephalinase resistant” and the “Cleavage by enkephalinase (release of compound 3a)” value is given as “not cleaved; also recorded: resistant”. For the same molecule, in the data set with trypsin, the “Conclusion (Peptidase: Trypsin)” value is given as “Trypsin resistant” and the “Cleavage by trypsin (release of compound 3a)” value is “not cleaved; also recorded: resistant”.
As for `N=C(NCc1ccc(Cl)cc1Cl)NC(=O)c1nc(Cl)c(N)nc1N` [DCB, 2,4-dichlorobenzamil], the “Concentration that killed U87 glioma cells” value with U87 glioma cells [4] (U87 glioma cells, C2am-Gly within 24 h) turned out to be 15 µM. In addition, the “Glioma Effect: cytotoxic concentration” value in the data set on U87 glioma cells [4] (glioma cells) was 15 μM cytotoxic. Also, the “Concentration that killed glioma cells” value in the data set with U87 glioma cells [4] (glioma cells, amiloride within 48-72 hours) was not below 20 µM. Also, in data set [5] (U87 glioma cells, FCCP or oligomycin), the “Effect of pretreatment on [Ca2+]i after calcium release from mitochondrial stores” value was “increase to cytotoxic levels”. Also, the “Persistent increase of [Ca2+]i” value in [5] (pretreatment followed by oligomycin or FCCP) is recorded as more than 800 nM. Besides, the “Concentration that inhibits NHE1 and reduces pHi” value at NHE1 (U87 glioma cells loaded with BCECF) is 50-100 nM. The “Rel. Activity” value in the data set with NHE1 and NCX was “NCX > NHE”. Further, in data set [6], the “Time to enter glioma cells and primary astrocytes” value was not above 150 min. Also, in data set [7], the “Animals dying during the following 12 to 24 h” value is given as 4 of 5 and the “Glioma death within poorly vascularized tumor regions (histology)” value is “extensive glioma death”.
With “Enkephalinase (neutral endopeptidase 24.11, porcine kidney; CalBiochem)”, the entries for the “Enzymatic digestion, LC-MS fragments at 24 h; Conclusion” value in data set [8], in data set [9] and in data set [10] were “Enkephalinase resistant”, “Enkephalinase resistant” and “Enkephalinase-mediated release of 3a”, respectively.

The record behind these values is patent US7863415B2 (The Regents of the University of California, priority 2004, dated 2011).
